From patent US20200032350A1, “COMPANION DIAGNOSTICS FOR LEUKEMIA TREATMENT” (JOHANN WOLFGANG GOETHE-UNIVERSITÄT FRANKFURT AM MAIN, priority 2017, published 2020)

What was measured:
H/M cells [1] = assay: treatment of mice transplanted with H/M cells; assay type: in vivo
Description: (§1) FIG. 7. Meis1 sensitizes Hoxa9-driven leukemia to Syk inhibition. (A) SYK protein expression in H/M cells transfected with either a control shRNA (GL2) or two shRNAs targeting SYK. Actin was used as loading control for relative protein quantification. (B) Percentage of BFP-positive shRNA-expressing cells relative to BFP-negative shRNA-negative cells at the times indicated (mean±SD, normalized to day 0). (C) Same as (A), before and after five days of doxycycline (dox) treatment in vivo. (D) Kaplan-Meier survival curves of mice transplanted with H/M cells and treated with doxycycline for 43 days to express non-specific control and Syk-specific shRNA (n=8). p-value is from a Mantel-Cox test. (E) Percentage of YFP-positive cells from peripheral blood of mice transplanted with H (left) or H/M (right) cells after treating for 7 days with R788 or placebo. Measurements were taken at the indicated time points. The black line connects median values. (F) Kaplan-Meier survival curves of mice transplanted with either H or H/M cells and treated for 20 days with R788 or placebo (n=11). p-value is from a Mantel-Cox test. (G) Relative HOXA9 and MEIS1 mRNA expression in MV4-11 and KG1 cell lines, and in patient-derived AML cells as measured by qPCR, normalized to GAPDH expression (mean±SD, n=3). […] Actin was used as loading control for relative protein quantification. avg, average. […]

H cells [2] = assay: treatment of mice transplanted with H cells; assay type: in vivo
Description: as §1

H/S cells = assay: colony formation and replating assay; assay type: cell-based, mouse
Description: (§2) The inventors next sought to characterize the functional consequences of Syk overexpression in the context of Hoxa9-driven leukemias. For this purpose, the consequences of a lentiviral overexpression of human SYK (hSYK) in H cells in vitro and in vivo were examined. […] While Hoxa9 alone is sufficient to enable replating, both Meis1 and hSYK enhanced replating efficiency.

H cells [3] = assay: time-lapse microscopy and single-cell tracking; assay type: cell-based, mouse; details: compared with DMSO-treated cells, tracked over more than 50 hours
Description: (§3) The effect of Syk inhibition in H and H/M cells was further examined by monitoring the fate of individual cells and their progeny by time-lapse microscopy and single-cell tracking (Rieger et al., 2009). This allowed to track hundreds of H and H/M cells over more than 50 hours in real time and to record their history across cell generations. […] In addition, the inventors knocked down Syk in vivo by transplanting mice with cells that were either transduced with the doxycycline-inducible lentiviral Syk shRNAs or with control shRNAs and treating them with doxycycline for 43 days. Knockdown of Syk prolonged the survival of mice transplanted with H/M cells from a median time of 40.5 days in controls to a median of 103 days (p<0.001) (FIGS. 7C and 7D). Furthermore, mice transplanted with H/M or H cells were treated with the oral Syk inhibitor R788, a prodrug of R406.

H/M cells [4] = assay: time-lapse microscopy and single-cell tracking; assay type: cell-based, mouse; details: compared with DMSO-treated cells, tracked over more than 50 hours
Description: as §3

H cells [5] = assay: colony formation and replating assay; assay type: cell-based, mouse
Description: (§4) To elucidate the molecular mechanisms underlying Meis1's contribution to leukemogenesis, a retroviral transplantation model was employed in which lineage-depleted mouse bone marrow cells were transduced with an MSCV-Hoxa9-PGK-neo construct, alone or in combination with an MSCV-Meis1-IRES-YFP construct that induced a 22-fold overexpression of Meis1. As reported by previously, the transformed cells could be cultured in vitro in the presence of IL3/IL6/SCF and expressed the expected immunophenotype characterized by the myeloid markers Mac-1 and Gr-1 as well as c-Kit (Pineault et al., 2005; Wang et al., 2005). When transplanted into irradiated recipient mice, cells transduced with Hoxa9 (H) or Hoxa9/Meis1 (H/M) gave rise to leukemia resulting in a median overall survival of 114 days and 41 days, respectively (p<0.001; FIG. 1A). This difference in survival is in accordance with previously published results and reflects the aggressiveness of Hoxa9/Meis1-driven AML observed in patients (Kroon et al., 1998).
as §2

H/M cells [6] = assay: colony formation and replating assay; assay type: cell-based, mouse
Description: as §4
The inventors next sought to characterize the functional consequences of Syk overexpression in the context of Hoxa9-driven leukemias. […]
To test whether the enhanced Syk signaling observed in H/M cells could be exploited therapeutically, the effects of Syk inhibitors and of an shRNA-mediated knockdown of Syk in H/M cells, in vitro and in vivo were analyzed.

[7] = system: CD34+ progenitor cells isolated from healthy donors; assay: relative viability of CD34+ bone marrow cells from healthy donors; assay type: cell-based, human
Description: Cells were treated for 24 h and DMSO was used as a control. (J) Relative viability of CD34+ bone marrow cells from healthy donors.

COc1cc(Nc2ncc(F)c(Nc3ccc4c(n3)N(COP(=O)(O)O)C(=O)C(C)(C)O4)n2)cc(OC)c1OC [R788, fostamatinib]
reduction of the percentage of leukemic cells (H/M cells [1]; seven days of treatment, oral, peripheral blood YFP-positive cells, on average): more than 70%
median survival (H/M cells [1]; treatment for 20 days, placebo median 38 days, p<0.001): 130 days
level of H cells (percentage of leukemic cells) (H cells [2]; seven days of treatment, oral): barely affecting
survival (H cells [2]; treatment for 20 days): No significant effect

COc1cc(Nc2ncc(F)c(Nc3ccc4c(n3)NC(=O)C(C)(C)O4)n2)cc(OC)c1OC [R406]
replating efficiency (H/S cells): decreased replating efficiency
cell death (H cells [3]): not significantly affected
cell death (H/M cells [4]): significant increase in cell death
colony formation and replating efficiency (H cells [5]): moderately affecting
colony formation potential and replating efficiency (H/M cells [6]): significantly reduced
replating efficiency (H/M cells [6]): decreased replating efficiency
viability [7]: did not affect the viability
